According to patent US20070134793A1, “REDIFFERENTIATION MEDIUM FOR MAKING […] CHONDROCYTE TO BE […] INTO CHONDROCYTE” (priority 2004, published 2007):

Tested on: dedifferentiated chondrocyte (P4, derived from human auricular cartilage)
Test: Study of preferable amount of each component in the redifferentiation medium (type II collagen expression)
Format: cell-based
Conditions: insulin 50, 5, 0.5 μg/mL compared; BMP-2 200 ng/mL, T3 10^-7 M

insulin
content of insulin at which the expression amount of type II collagen was the largest: 5 µg/mL
